Read-outs that look alike come from different tables or passages of the source.
Columns and labels:
cyclin D1/cdk 4 enzyme = biological target: T1, cyclin D1/cdk 4 enzyme (Homo sapiens, UniProt P11802); assay: CDK4 ELISA kinase assay (phospho-Rb ser 795 detection); type: biochemical; details: In Vitro Enzyme Assays, 200 μM ATP, read-out: CDK4 IC50
T1 construct: made in house; host or cells: Sf9 insect cells, recombinant baculovirus
Outline: (§1)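 ELISA format: plate-bound GST-Rb, 200 μM ATP, Sf9 cyclin/CDK enzyme, 1 h at 30° C; then anti-pRb Ser795 primary overnight at 4° C, HRP secondary, TMB. IC50 after no-substrate background subtraction.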

cyclin B/CDK1 enzyme = biological target: T2, cyclin B/CDK1 enzyme (Homo sapiens, UniProt P06493); assay: CDK1 ELISA kinase assay (phospho-Rb ser 795 detection); type: biochemical; details: In Vitro Enzyme Assays, read-out: CDK1 IC50
T2 construct: purchased New England BioLabs; host or cells: Sf9 insect cells, recombinant baculovirus
T2 sequence (P06493 whole entry): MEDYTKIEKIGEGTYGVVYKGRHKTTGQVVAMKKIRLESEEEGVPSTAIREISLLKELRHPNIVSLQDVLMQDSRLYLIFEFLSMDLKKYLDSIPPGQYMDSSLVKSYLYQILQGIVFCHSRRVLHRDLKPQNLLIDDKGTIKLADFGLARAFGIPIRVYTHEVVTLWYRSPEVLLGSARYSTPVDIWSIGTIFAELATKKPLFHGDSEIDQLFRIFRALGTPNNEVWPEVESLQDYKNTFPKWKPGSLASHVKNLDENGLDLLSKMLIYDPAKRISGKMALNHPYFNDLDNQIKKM
T2 sequence (P14635 whole entry partner): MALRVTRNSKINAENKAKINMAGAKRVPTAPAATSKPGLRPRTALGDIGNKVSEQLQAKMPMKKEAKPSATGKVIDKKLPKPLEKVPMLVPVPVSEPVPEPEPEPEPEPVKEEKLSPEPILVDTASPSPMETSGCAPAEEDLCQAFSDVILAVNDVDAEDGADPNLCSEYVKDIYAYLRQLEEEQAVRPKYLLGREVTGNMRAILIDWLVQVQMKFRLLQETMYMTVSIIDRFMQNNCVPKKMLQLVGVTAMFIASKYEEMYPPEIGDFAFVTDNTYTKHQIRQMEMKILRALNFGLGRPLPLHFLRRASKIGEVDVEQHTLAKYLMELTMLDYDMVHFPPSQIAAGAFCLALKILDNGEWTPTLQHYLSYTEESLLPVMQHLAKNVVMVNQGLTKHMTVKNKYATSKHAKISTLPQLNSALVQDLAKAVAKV
Outline: as §1

BT474 = assay: Cytotoxicity assay (SRB), BT474; type: cell-based; details: Homo sapiens, BT-474, 144 h, read-out: In Vitro Cellular Activity IC50 BT474
Outline: (§2)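 Cells seeded overnight at 37 °C, 7% CO2 (BT474 12000, HCT-116 4000, LoVo and MCF-7 6000 cells/well) in RPMI 1640 with 5% FBS, then exposed to compound dilutions for 3 days (BT474 6 days). Survival versus untreated controls by TCA fixation and SRB staining, absorbance 540 nm.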

HCT-116 = assay: Cytotoxicity assay (SRB), HCT-116; type: cell-based; details: Homo sapiens, HCT-116, 72 h, read-out: In Vitro Cellular Activity IC50 HCT116
Outline: as §2

LoVo = assay: Cytotoxicity assay (SRB), LoVo; type: cell-based; details: Homo sapiens, LoVo, 72 h, read-out: In Vitro Cellular Activity IC50 LOVO
Outline: as §2

MCF-7 = assay: Cytotoxicity assay (SRB), MCF-7; type: cell-based; details: Homo sapiens, MCF7, 72 h, read-out: In Vitro Cellular Activity IC50 MCF-7
Outline: as §2

cyclin E/CDK2 enzyme = biological target: T3, cyclin E/CDK2 enzyme (Homo sapiens, UniProt P24941); assay: CDK2 ELISA kinase assay (phospho-Rb ser 795 detection); type: biochemical; details: In Vitro Enzyme Assay, cyclin E/CDK2, read-out: CDK2 IC50
T3 construct: made in house; host or cells: Sf9 insect cells, recombinant baculovirus
Outline: as §1

T1 sequence (P11802 whole entry, species assumed): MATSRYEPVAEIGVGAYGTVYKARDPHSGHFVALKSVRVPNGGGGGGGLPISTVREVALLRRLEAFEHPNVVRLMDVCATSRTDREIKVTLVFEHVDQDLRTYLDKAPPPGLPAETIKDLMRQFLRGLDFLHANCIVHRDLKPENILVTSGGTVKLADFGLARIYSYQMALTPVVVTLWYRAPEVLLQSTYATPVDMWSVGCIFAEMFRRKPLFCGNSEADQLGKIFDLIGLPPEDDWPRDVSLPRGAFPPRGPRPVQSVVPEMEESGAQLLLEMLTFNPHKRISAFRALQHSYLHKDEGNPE
T1 sequence (P24385 whole entry partner, species assumed): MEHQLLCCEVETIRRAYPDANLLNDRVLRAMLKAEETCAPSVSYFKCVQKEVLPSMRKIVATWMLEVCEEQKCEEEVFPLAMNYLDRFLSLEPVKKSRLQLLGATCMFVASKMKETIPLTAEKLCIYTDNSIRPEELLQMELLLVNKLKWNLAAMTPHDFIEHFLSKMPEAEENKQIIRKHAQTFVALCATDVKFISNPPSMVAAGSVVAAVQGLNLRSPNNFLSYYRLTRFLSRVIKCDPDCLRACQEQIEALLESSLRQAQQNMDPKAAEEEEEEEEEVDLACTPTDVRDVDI

| Structure (SMILES) | IC50 (cyclin D1/cdk 4 enzyme) [µM] | IC50 (cyclin B/CDK1 enzyme) [µM] | melting point | IC50 (BT474; BT474 cells, SRB, 6 days) [µM] | IC50 (HCT-116; HCT116 cells, SRB, three days) [µM] | IC50 (LoVo; LoVo cells, SRB, three days) [µM] | IC50 (MCF-7; MCF-7 cells, SRB, three days) [µM] | IC50 (cyclin E/CDK2 enzyme) [µM] | IC50 (BT474) [µM] | IC50 (HCT-116) [µM] | IC50 (LoVo) [µM] | IC50 (MCF-7) [µM] | IC50 (BT474; BT474 cells, 6 days, SRB) [µM] | IC50 (HCT-116; HCT116 cells, 3 days, SRB) [µM] | IC50 (LoVo; LoVo cells, 3 days, SRB) [µM] | IC50 (MCF-7; MCF-7 cells, 3 days, SRB) [µM] |
| --- | --- | --- | --- | --- | --- | --- | --- | --- | --- | --- | --- | --- | --- | --- | --- | --- |
| COc1ccc2c(c1)C(=CNc1ccc(CN3CCCCC3)cc1)C(=O)NC2=O [Example 91, 6-Methoxy-4-[(4-piperidin-1-ylmethyl-phenylamino)-methylene]-4H-isoquinoline-1,3-dione] | 2 | > 50 | 272 to 275 °C (dec.) | 40 | 27 | 37 | 16 | – | – | – | – | – | – | – | – | – |
| COc1ccc(CN/C=C2\C(=O)NC(=O)c3ccc(-c4ccoc4)cc32)cc1O [Example 92] | < 0.005 | 2.5 | 254 to 255 °C | 2 | 2.5 | 3.2 | 3.8 | – | – | – | – | – | – | – | – | – |
| CC(=O)Nc1ccc(CN/C=C2\C(=O)NC(=O)c3ccc(Br)cc32)cc1O [Example 142, N-[4-({[(Z)-(6-Bromo-1,3-dioxo-2,3-dihydroisoquinolin-4(1H)-′ylidene)methyl]amino}methyl)-2-hydroxyphenyl]acetamide] | 0.02 | > 50 | 252 to 253 °C | 0.66 | 1.2 | 2 | 31.1 | – | – | – | – | – | – | – | – | – |
| O=C1NC(=O)c2ccccc2/C1=C/NCc1ccc(O)cc1 [Example 61] | > 50 | 37.2 | 272 to 273 °C | > 50 | 27.6 | > 50 | > 50 | – | – | – | – | – | – | – | – | – |
| CN1CCN(c2ccc3c(c2)/C(=C/Nc2ccc(CN4CCCCC4)cc2)C(=O)NC3=O)CC1 [Example 123] | 34.7 | > 50 | 192 to 193 °C | 9.4 | 3.4 | 4.4 | 7.2 | – | – | – | – | – | – | – | – | – |
| O=C1NC(=O)c2ccc(C3CCCC3)cc2/C1=C/NCc1cc(O)c(-c2ccoc2)cn1 [Example 537] | – | – | 279 to 283 °C (dec.) | – | – | – | – | 1.3 | 0.13 | 0.81 | 0.3 | 0.83 | – | – | – | – |
| O=C1NC(=O)c2ccccc2/C1=C/NCc1cccc(O)c1 [Example 63] | 0.78 | > 50 | 261 to 262 °C | 49 | > 50 | > 50 | > 50 | – | – | – | – | – | – | – | – | – |
| COc1ccc(CN/C=C2\C(=O)NC(=O)c3ccc(F)cc32)cc1O [Example 68] | 0.17 | > 50 | 200 to 201 °C | 14 | 15 | 19 | > 50 | – | – | – | – | – | – | – | – | – |
| CCCOc1ccc(CN/C=C2\C(=O)NC(=O)c3ccc(I)cc32)nc1O [Example 510, 4-{[(6-Hydroxy-5-propoxy-pyridin-2-ylmethyl)-amino]-methylene}-6-iodo-4H-isoquinoline-1,3-dione] | – | – | 275 to 281 °C (dec.) | – | – | – | – | – | – | – | – | – | 0.16 | 0.67 | 0.42 | 1.4 |
| N#Cc1ccc2c(c1)/C(=C/Nc1ccc(CN3CCCCC3)cc1)C(=O)NC2=O [Example 110, (4Z)-1,3-Dioxo-4-({[4-(piperidin-1-ylmethyl)phenyl]amino}methylene)1,2,3,4-tetrahydroisoquinoline-6-carbonitrile] | – | – | 254 to 256 °C (dec.) | 3.5 | 1.6 | 2.5 | 5.8 | – | – | – | – | – | – | – | – | – |
| O=C1NC(=O)c2ccc(I)cc2/C1=C/Nc1ccc(OCc2ccccn2)cc1 [Example 247] | – | – | 265 to 266 °C | 35 | 18 | > 50 | > 50 | – | – | – | – | – | – | – | – | – |

Continued, in another order:

| IC50 (cyclin D1/cdk 4 enzyme) [µM] | IC50 (cyclin B/CDK1 enzyme) [µM] | melting point | Structure (SMILES) | IC50 (BT474; BT474 cells, SRB, 6 days) [µM] | IC50 (HCT-116; HCT116 cells, SRB, three days) [µM] | IC50 (LoVo; LoVo cells, SRB, three days) [µM] | IC50 (MCF-7; MCF-7 cells, SRB, three days) [µM] | IC50 (cyclin E/CDK2 enzyme) [µM] | IC50 (BT474) [µM] | IC50 (HCT-116) [µM] | IC50 (LoVo) [µM] | IC50 (MCF-7) [µM] | IC50 (BT474; BT474 cells, 6 days, SRB) [µM] | IC50 (HCT-116; HCT116 cells, 3 days, SRB) [µM] | IC50 (LoVo; LoVo cells, 3 days, SRB) [µM] | IC50 (MCF-7; MCF-7 cells, 3 days, SRB) [µM] |
| --- | --- | --- | --- | --- | --- | --- | --- | --- | --- | --- | --- | --- | --- | --- | --- | --- |
| 1.1 | > 50 | 184 to 186 °C | CC(=O)Oc1ccc(CN/C=C2\C(=O)NC(=O)c3ccccc32)cc1OC(C)=O [Example 47, 2-(Acetyloxy)-4-({[(Z)-(1,3-dioxo-2,3-dihydroisoquinolin-4(1H)-ylidene)methyl]amino}-methyl)phenyl acetate] | – | 21 | 22 | 20 | – | – | – | – | – | – | – | – | – |
| 0.037 | > 50 | 204 to 205 °C | O=C1NC(=O)c2ccc(-c3ccoc3)cc2/C1=C/Nc1ccc(CN2CCCCC2)cc1 [Example 93] | 1 | – | 1.8 | – | – | – | – | – | – | – | – | – | – |
| 21.2 | > 50 | 266 to 267 °C (dec.) | CN(C)C(=O)c1ccc2c(c1)/C(=C/Nc1ccc(CN3CCCCC3)cc1)C(=O)NC2=O [Example 66, (4Z)-N,N-Dimethyl-1,3-dioxo-4-({[4-(piperidinylmethyl)phenyl]amino}methylene)-1,2,3,4-tetrahydroisoquinoline-6-carboxamide] | 3.1 | 3.4 | 4.2 | 4.3 | – | – | – | – | – | – | – | – | – |
| 0.31 | > 50 | 195 to 196 °C | O=C1NC(=O)c2ccc(-c3ccc(F)cc3)cc2/C1=C/Nc1ccc(CN2CCCCC2)cc1 [Example 251, (4Z)-6-(4-Fluorophenyl)-4-({[4-(piperidin-1-′ylmethyl)phenyl]amino}methylene)isoquinoline-1,3(2H,4H)-dione] | 1.1 | 1 | 1.7 | 0.55 | – | – | – | – | – | – | – | – | – |
| 0.13 | > 50 | 247 to 248 °C | O=C1NC(=O)c2ccc(-c3cccnc3)cc2/C1=C/Nc1ccc(CN2CCCCC2)cc1 [Example 102] | > 50 | 11.5 | 43.3 | > 50 | – | – | – | – | – | – | – | – | – |
| 0.041 | > 50 | 244 to 245 °C | O=C1NC(=O)c2ccc(-c3ccc(O)cc3)cc2/C1=C/Nc1ccc(CN2CCCCC2)cc1 [Example 103] | 3.7 | – | 2.3 | – | – | – | – | – | – | – | – | – | – |
| – | > 50 | 200 to 201 °C | CN1CCN(c2ccc(N/C=C3\C(=O)NC(=O)c4ccc(-c5ccoc5)cc43)cn2)CC1 [Example 249, (4Z)-6-(3-Furyl)-4-({[6-(4-methylpiperazin-1-yl)pyridin-3-′yl]amino}methylene)isoquinoline-1,3(2H,4H)-dione] | 2 | – | 2.4 | – | – | – | – | – | – | – | – | – | – |
| – | > 50 | 214 to 215 °C | O=C1NC(=O)c2ccc(-c3ccccc3)cc2/C1=C/Nc1ccc(CN2CCCCC2)cc1 [Example 95] | 3 | – | 3.7 | – | – | – | – | – | – | – | – | – | – |
| 0.92 | > 50 | 216 to 217 °C | O=C1NC(=O)c2ccc(N3CCOCC3)cc2/C1=C/Nc1ccc(CN2CCCCC2)cc1 [Example 120, (4Z)-6-Morpholin-4-yl-4-({[4-(piperidin-1-ylmethyl)phenyl]amino}methylene)isoquinoline-1,3(2H,4H)-dione] | 8 | 4.3 | 7.7 | 21 | – | – | – | – | – | – | – | – | – |
| 17.3 | 25.3 | > 300 °C | CC1CN(c2ccc(N/C=C3\C(=O)NC(=O)c4ccc([N+](=O)[O-])cc43)cc2)CC(C)N1 (stereo not drawn) [Example 235, (4Z)-4-({[4-(3,5-Dimethylpiperazin-1-yl)phenyl]amino}methylene)-6-nitroisoquinoline-1,3(2H,4H)-dione] | 3 | 1.4 | 3.5 | 3.3 | – | – | – | – | – | – | – | – | – |
| 0.027 | > 50 | 235 to 236 °C | O=C1NC(=O)c2ccc(-c3cccc(O)c3)cc2/C1=C/Nc1ccc(CN2CCCCC2)cc1 [Example 96] | 3.4 | 1.3 | 1.8 | 2 | – | – | – | – | – | – | – | – | – |
| – | – | 312 to 313 °C | Cc1ccc(CN/C=C2\C(=O)NC(=O)c3ccc(I)cc32)cc1O [Example 157, (4Z)-4-{[(4-Methyl-3-hydroxybenzyl)amino]methylene}-6-iodoisoquinoline-′1,3(2H,4H)-dione] | 19 | 6.7 | 22 | 8.2 | – | – | – | – | – | – | – | – | – |
